Bounds are passed on as bounds.

In the experiment the target is T1, Nav1.7 (or SCN9A) channel; HEK cells stably transfected with hSCN9A (Homo sapiens, UniProt Q15858).
T1 construct: expressed in transfected cells
T1 sequence (Q15858 whole entry): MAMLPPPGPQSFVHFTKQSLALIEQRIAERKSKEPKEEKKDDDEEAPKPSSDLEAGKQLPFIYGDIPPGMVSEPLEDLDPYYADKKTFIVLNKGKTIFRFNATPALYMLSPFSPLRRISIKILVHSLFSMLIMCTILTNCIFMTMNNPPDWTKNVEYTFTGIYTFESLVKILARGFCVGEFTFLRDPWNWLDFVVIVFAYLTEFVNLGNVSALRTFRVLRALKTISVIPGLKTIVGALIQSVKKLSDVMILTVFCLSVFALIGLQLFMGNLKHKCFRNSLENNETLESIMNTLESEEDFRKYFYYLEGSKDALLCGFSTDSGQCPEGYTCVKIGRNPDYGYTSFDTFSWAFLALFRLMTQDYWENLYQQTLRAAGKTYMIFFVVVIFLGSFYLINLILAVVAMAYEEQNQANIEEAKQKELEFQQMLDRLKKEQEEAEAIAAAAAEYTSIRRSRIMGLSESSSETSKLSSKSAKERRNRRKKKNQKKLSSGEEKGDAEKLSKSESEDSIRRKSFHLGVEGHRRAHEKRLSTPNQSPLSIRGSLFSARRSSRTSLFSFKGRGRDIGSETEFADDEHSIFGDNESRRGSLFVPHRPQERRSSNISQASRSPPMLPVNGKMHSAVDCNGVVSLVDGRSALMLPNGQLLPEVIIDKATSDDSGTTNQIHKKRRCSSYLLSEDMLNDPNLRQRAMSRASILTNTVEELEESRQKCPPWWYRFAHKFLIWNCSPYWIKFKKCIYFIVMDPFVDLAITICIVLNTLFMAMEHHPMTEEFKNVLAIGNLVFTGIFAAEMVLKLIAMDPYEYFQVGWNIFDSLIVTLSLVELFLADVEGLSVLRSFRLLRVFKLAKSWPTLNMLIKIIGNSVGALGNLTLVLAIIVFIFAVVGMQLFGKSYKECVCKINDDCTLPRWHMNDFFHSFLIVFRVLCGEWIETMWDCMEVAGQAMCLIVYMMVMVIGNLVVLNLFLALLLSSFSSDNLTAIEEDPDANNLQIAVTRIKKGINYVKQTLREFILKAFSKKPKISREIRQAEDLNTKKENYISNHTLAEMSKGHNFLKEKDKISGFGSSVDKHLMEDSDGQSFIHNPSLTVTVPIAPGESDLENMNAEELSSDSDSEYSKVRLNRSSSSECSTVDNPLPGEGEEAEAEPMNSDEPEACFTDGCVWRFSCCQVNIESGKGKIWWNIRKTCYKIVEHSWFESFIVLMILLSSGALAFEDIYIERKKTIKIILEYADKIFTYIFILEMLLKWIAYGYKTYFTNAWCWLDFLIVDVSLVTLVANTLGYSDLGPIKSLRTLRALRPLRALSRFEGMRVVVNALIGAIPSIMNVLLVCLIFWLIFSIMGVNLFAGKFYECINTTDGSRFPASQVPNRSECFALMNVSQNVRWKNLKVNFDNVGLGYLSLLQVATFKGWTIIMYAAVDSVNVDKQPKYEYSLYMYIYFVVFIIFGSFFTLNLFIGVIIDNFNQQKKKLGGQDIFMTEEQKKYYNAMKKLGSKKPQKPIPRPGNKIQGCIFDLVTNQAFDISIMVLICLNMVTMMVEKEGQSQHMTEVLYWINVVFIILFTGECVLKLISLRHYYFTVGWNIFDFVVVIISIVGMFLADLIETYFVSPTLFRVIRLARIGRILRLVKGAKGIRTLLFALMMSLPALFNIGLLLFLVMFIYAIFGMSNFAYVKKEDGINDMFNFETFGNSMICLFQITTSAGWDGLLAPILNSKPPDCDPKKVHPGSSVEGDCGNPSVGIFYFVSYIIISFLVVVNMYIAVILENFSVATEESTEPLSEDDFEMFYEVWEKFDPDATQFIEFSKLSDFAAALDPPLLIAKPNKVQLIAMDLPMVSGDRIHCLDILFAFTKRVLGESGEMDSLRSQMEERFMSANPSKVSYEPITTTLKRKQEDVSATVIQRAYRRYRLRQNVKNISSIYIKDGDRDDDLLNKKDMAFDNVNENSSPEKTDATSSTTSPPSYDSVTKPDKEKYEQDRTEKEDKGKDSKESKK
The experiment in a line: Nav1.7 block, PatchXpress 7000 automated whole-cell voltage clamp, estimated IC50 (EIC50). The experiment is classed as cell-based. The following applies: PatchXpress platform; hSCN9A HEK cells held at V1/2 of inactivation; estimated IC50.
What is called IC50 is the midpoint of a concentration-inhibition curve. As to `COc1ccc(-c2cc(F)ccc2Oc2ccc(S(=O)(=O)Nc3nccs3)cc2C#N)cn1` [Example 151, 3-cyano-4-[4-fluoro-2-(6-methoxypyridin-3-yl)phenoxy]-N-1,3-thiazol-2-ylbenzenesulfonamide], the IC50 was 50 nM.
The same measure for `N#Cc1cc(S(=O)(=O)Nc2nccs2)ccc1Oc1ccc(F)cc1-c1ccc(F)cc1` [Example 152, 3-cyano-4-[(4′,5-difluorobiphenyl-2-yl)oxy]-N-1,3-thiazol-2-ylbenzenesulfonamide]: 80 nM; for `N#Cc1cc(S(=O)(=O)Nc2nccs2)ccc1Oc1ccc(F)cc1-c1cccc(CCO)c1` [Example 153, 3-cyano-4-{[5-fluoro-3′-(2-hydroxyethyl)biphenyl-2-yl]oxy}-N-1,3-thiazol-2-ylbenzenesulfonamide]: 60 nM.
For `COc1cccc(-c2cc(F)ccc2Oc2ccc(S(=O)(=O)Nc3nccs3)cc2C#N)c1` [Example 154, 3-cyano-4-[(5-fluoro-3′-methoxybiphenyl-2-yl)oxy]-N-1,3-thiazol-2-ylbenzenesulfonamide] the value was 130 nM; for `CC(C)Oc1ccc(-c2cc(Cl)ccc2Oc2ccc(S(=O)(=O)Nc3nccs3)cc2C#N)cc1` [Example 155, 4-[(5-chloro-4′-isopropoxybiphenyl-2-yl)oxy]-3-cyano-N-1,3-thiazol-2-ylbenzenesulfonamide], 850 nM; for `N#Cc1cc(S(=O)(=O)Nc2nccs2)ccc1Oc1ccc(Cl)cc1-c1ccccc1` [Example 156, 4-[(5-chlorobiphenyl-2-yl)oxy]-3-cyano-N-1,3-thiazol-2-ylbenzenesulfonamide], 30 nM.
For `CC(C)Oc1ccc(-c2cc(F)ccc2Oc2ccc(S(=O)(=O)Nc3nccs3)cc2C#N)cc1` [Example 157, 3-cyano-4-[(5-fluoro-4′-isopropoxybiphenyl-2-yl)oxy]-N-1,3-thiazol-2-ylbenzenesulfonamide] the value was 450 nM; for `N#Cc1cc(S(=O)(=O)Nc2nccs2)ccc1Oc1ccc(F)cc1-c1ccc(F)c(F)c1` [Example 158, 3-cyano-N-1,3-thiazol-2-yl-4-[(3′,4′,5-trifluorobiphenyl-2-yl)oxy]benzenesulfonamide], 310 nM.
Regarding `Cc1nccn1-c1cc(Cl)ccc1Oc1ccc(S(=O)(=O)Nc2nccs2)cc1C#N` [Example 159, 4-[4-chloro-2-(2-methyl-1H-imidazol-1-yl)phenoxy]-3-cyano-N-1,3-thiazol-2-ylbenzenesulfonamide], the concentration for half-maximal inhibition (IC50) was 80 nM.
For `COCc1cccc(-c2cc(F)ccc2Oc2ccc(S(=O)(=O)Nc3nccs3)cc2C#N)c1` [Example 160, 3-cyano-4-{[5-fluoro-3′-(methoxymethyl)biphenyl-2-yl]oxy}-N-1,3-thiazol-2-ylbenzenesulfonamide] the value was 60 nM; for `N#Cc1cc(S(=O)(=O)Nc2nccs2)ccc1Oc1ccc(F)cc1-c1cccc(CO)c1` [Example 161, 3-cyano-4-{[5-fluoro-3′-(hydroxymethyl)biphenyl-2-yl]oxy}-N-1,3-thiazol-2-ylbenzenesulfonamide], 70 nM.
For `N#Cc1cc(S(=O)(=O)Nc2nccs2)ccc1Oc1ccc(F)cc1-c1ccc(CO)cc1` [Example 162, 3-cyano-4-{[5-fluoro-4′-(hydroxymethyl)biphenyl-2-yl]oxy}-N-1,3-thiazol-2-ylbenzenesulfonamide] the value was 420 nM; for `COCc1ccc(-c2cc(F)ccc2Oc2ccc(S(=O)(=O)Nc3nccs3)cc2C#N)cc1` [Example 163, 3-cyano-4-{[5-fluoro-4′-(methoxymethyl)biphenyl-2-yl]oxy}-N-1,3-thiazol-2-ylbenzenesulfonamide], 410 nM; for `N#Cc1cc(S(=O)(=O)Nc2nccs2)ccc1Oc1ccc(Cl)cc1-c1ccccn1` [Example 164, 4-(4-chloro-2-pyridin-2-ylphenoxy)-3-cyano-N-1,3-thiazol-2-ylbenzenesulfonamide], 580 nM.
The same measure for `N#Cc1cc(S(=O)(=O)Nc2nccs2)ccc1Oc1ccccc1-c1ccccc1` [Example 165, 4-(biphenyl-2-yloxy)-3-cyano-N-(thiazol-2-yl)benzenesulfonamide]: 50 nM; for `Cc1nc(-c2ccccc2Oc2ccc(S(=O)(=O)Nc3nccs3)cc2C#N)cs1` [Example 166, 3-cyano-4-(2-(2-methylthiazol-4-yl)phenoxy)-N-(thiazol-2-yl)benzenesulfonamide]: 1810 nM; for `N#Cc1cc(S(=O)(=O)Nc2nccs2)ccc1Oc1cnn(Cc2ccc(Cl)cc2)c1` [Example 167, 4-(1-(4-chlorobenzyl)-1H-pyrazol-4-yloxy)-3-cyano-N-(thiazol-2-yl)benzenesulfonamide]: 750 nM.
Consider `N#Cc1cc(S(=O)(=O)Nc2nccs2)ccc1Oc1cc(C(F)(F)F)nn1-c1ccccc1` [Example 168, 3-cyano-4-(1-phenyl-3-(trifluoromethyl)-1H-pyrazol-5-yloxy)-N-(thiazol-2-yl)benzenesulfonamide], for which the IC50 was 70 nM.
Turning to `Cn1nccc1-c1cc(F)ccc1Oc1ccc(S(=O)(=O)Nc2nccs2)cc1C#N` [Example 169, 3-cyano-4-(4-fluoro-2-(1-methyl-1H-pyrazol-5-yl)phenoxy)-N-(thiazol-2-yl)benzenesulfonamide], the IC50 was 50 nM.
The same measure for `Cn1nccc1-c1cc(Cl)ccc1Oc1ccc(S(=O)(=O)Nc2nccs2)cc1C#N` [Example 170, 4-[4-Chloro-2-(1-methyl-1H-pyrazol-5-yl)phenoxy]-3-cyano-N-1,3-thiazol-2-ylbenzenesulfonamide]: 10 nM.
For `N#Cc1cc(S(=O)(=O)Nc2nccs2)ccc1Oc1ccc(Cl)cc1-c1ccnn1-c1ccccc1` [Example 171, 4-(4-chloro-2-(1-phenyl-1H-pyrazol-5-yl)phenoxy)-3-cyano-N-(thiazol-2-yl)benzenesulfonamide] the value was 110 nM; for `N#Cc1cc(S(=O)(=O)Nc2nccs2)ccc1Oc1ccccc1-c1nnco1` [Example 173, 4-(2-(1,3,4-oxadiazol-2-yl)phenoxy)-3-cyano-N-(thiazol-2-yl)benzenesulfonamide], 2090 nM; for `N#Cc1cc(S(=O)(=O)Nc2nccs2)ccc1Oc1ccccc1-c1ccno1` [Example 174, 3-cyano-4-(2-(isoxazol-5-yl)phenoxy)-N-(thiazol-2-yl)benzenesulfonamide], above 10000 nM.
The same measure for `N#Cc1cc(S(=O)(=O)Nc2nccs2)ccc1Oc1ccc(F)cc1-c1ccnn1CC(F)(F)F` [Example 175, 3-cyano-4-(4-fluoro-2-(1-(2,2,2-trifluoroethyl)-1H-pyrazol-5-yl)phenoxy)-N-(thiazol-2-yl)benzenesulfonamide]: 540 nM; for `Cc1ccnn1-c1cc(F)ccc1Oc1ccc(S(=O)(=O)Nc2nccs2)cc1C#N` [Example 176, 3-cyano-4-(4-fluoro-2-(5-methyl-1H-pyrazol-1-yl)phenoxy)-N-(thiazol-2-yl)benzenesulfonamide]: 8870 nM; for `N#Cc1cc(S(=O)(=O)Nc2nccs2)ccc1Oc1ccc(Cl)cc1-c1ccnn1CC(F)(F)F` [Example 177, 4-(4-chloro-2-(1-(2,2,2-trifluoroethyl)-1H-pyrazol-5-yl)phenoxy)-3-cyano-N-(thiazol-2-yl)benzenesulfonamide]: 100 nM.
